Each structure is given as a SMILES string.

One test deals with ring stage parasites. Briefly: Parasite growth potency assay, 72 hours, LDH readout. It counts as cell-based. Conditions: 72 h, parasite growth measured by LDH assay after 72 hours at 37° C.; 0.7% rings, 2% haematocrit; read-out: EC50. Put shortly:
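Parasite growth was quantified by LDH assay after a −80 °C freeze-thaw. Before that, compound was incubated for 72 h at 37 °C under humidified gas with ring-stage cultures adjusted to 0.7% parasitemia and 2% haematocrit in serum- and albumax-supplemented RPMI-Hepes.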
Consider `CCC1(CC)CC(=O)N([C@@H](c2cccc(C(=O)N[C@H]3CCOc4ccccc43)c2)c2cncs2)C(=N)N1` [Example 85A, N-[(4S)-chroman-4-yl]-3-[(4,4-diethyl-2-imino-6-oxo-hexahydropyrimidin-1-yl)-thiazol-5-yl-methyl]benzamide], for which the EC50 (as a rule, the concentration giving half of the maximal effect) came out at 1 nM.
The same measure, in the same setting: in the case of `CC(C)[C@]1(C)CC(=O)N([C@H](C)c2cccc(C(=O)N[C@H]3CCOc4ccccc43)c2)C(=N)N1` [Example 25, [(4S)-1-[1-[3-[[(4S)-chroman-4-yl]carbamoyl]phenyl]ethyl]-4-isopropyl-4-methyl-6-oxo-hexahydropyrimidin-2-ylidene]ammonium; 2,2,2-trifluoroacetate] it was 4.4 nM.
For the compound `CC[C@@]1(C(C)C)CC(=O)N(Cc2cc(F)cc(C(=O)N[C@@H]3c4ccccc4C[C@H]3O)c2)C(=N)N1` [Example 61, [(4S)-4-ethyl-1-[[3-fluoro-5-[[(1R,2R)-2-hydroxyindan-1-yl]carbamoyl]phenyl]methyl]-4-isopropyl-6-oxo-hexahydropyrimidin-2-ylidene]ammonium; 2,2,2-trifluoroacetate], the EC50 came to 6.1 nM.
With `CCC[C@@H](c1cccc(C(=O)NC2CC(C)(C)Oc3ccccc32)c1)N1C(=N)NC(CC)(CC)CC1=O` (stereo in doubt) [Example 62B, [1-[1-[3-[(2,2-dimethylchroman-4-yl)carbamoyl]phenyl]butyl]-4,4-diethyl-6-oxo-hexahydropyrimidin-2-ylidene]ammonium; 2,2,2-trifluoroacetate], the EC50 was 7.5 nM.
Turning to `CCC1(CC)CC(=O)N([C@H](CCOC(F)F)c2cccc(C(=O)N[C@@H]3c4ccccc4C[C@H]3O)c2)C(=N)N1` [Example 157, [1-[3-(difluoromethoxy)-1-[3-[[(1R,2R)-2-hydroxyindan-1-yl]carbamoyl]phenyl]propyl]-4,4-diethyl-6-oxo-hexahydropyrimidin-2-ylidene]ammonium; 2,2,2-trifluoroacetate], the EC50 stood at 1.8 nM.
Regarding `CCC1(CC)CC(=O)N(Cc2cncc(C(=O)N[C@H]3CCOc4ccccc43)c2)C(=N)N1` [Example 24, [1-[[5-[[(4S)-chroman-4-yl]carbamoyl]-3-pyridyl]methyl]-4,4-diethyl-6-oxo-hexahydropyrimidin-2-ylidene]ammonium; 2,2,2-trifluoroacetate], the EC50 stood at 10.1 nM.
Still for that read-out and setting: the value for `CCC[C@H](c1cccc(C(=O)N[C@H]2CCOc3ccccc32)c1)N1C(=N)N[C@@](CC2CC2)(c2ccccc2)CC1=O` [Example 64, [(4R)-1-[(1R)-1-[3-[[(4S)-chroman-4-yl]carbamoyl]phenyl]butyl]-4-(cyclopropylmethyl)-6-oxo-4-phenyl-hexahydropyrimidin-2-ylidene]ammonium; 2,2,2-trifluoroacetate] was 75.4 nM; that for `CCC[C@H](c1cccc(C(=O)N[C@H]2CCc3ccccc32)c1)N1C(=N)NC(CC)(CC)CC1=O` [Example 76, [4,4-diethyl-1-[1-[3-[[(1S)-indan-1-yl]carbamoyl]phenyl]butyl]-6-oxo-hexahydropyrimidin-2-ylidene]ammonium; 2,2,2-trifluoroacetate] was 0.9 nM.
Still for that read-out and setting: in the case of `CCC[C@H](c1cccc(C(=O)N[C@@H]2c3ccccc3OCC2O)c1)N1C(=N)NC(CC)(CC)CC1=O` (single isomer, unassigned) [Example 127B] it was 1.2 nM.

The test is the same for the next values; noted with them: parasite growth measured by LDH assay after 72 hours at 37° C.; 0.7% rings, 2% haematocrit; read-out: EC50.
On to `CCC12CCCCCCC3COc4ccccc4C3NC(=O)c3cccc(c3)CN(C(=N)N1)C(=O)C2` (single isomer, unassigned) [Example 120B, (26-ethyl-8,29-dioxo-17-oxa-1,9,27-triazapentacyclo[24.2.2.13,7.010,19. 011,16]hentriaconta-3,5,7(31),11(16),12,14-hexaen-28-ylidene)ammonium; 2,2,2-trifluoroacetate], for which the EC50 came to 35.5 nM.

Source of the values: patent publication US12629374B2, “Antimalarial agents” (Merck Sharp & Dohme LLC, priority 2020, dated 2026).
